From patent US20240381872A1, “SUBSTITUTED 2,3-DIHYDRO[1,3]THIAZOLO[4,5-B]PYRIDINES, SALTS THEREOF AND THEIR USE AS HERBICIDALLY ACTIVE SUBSTANCES” (BAYER AKTIENGESELLSCHAFT, priority 2021, published 2024)

Columns and labels:
Format in all cases: in vivo
[1] = test system: Glycine max (GLXMA); assay: Post-emergence effects on crop plants, section F (Table F4); conditions: Glycine max, 504 h, application rate 320 g/ha, read-out: post-emergence activity against GLXMA in %
Source text: (§1) Seeds of mono- and dicotyledonous weed plants and crop plants were sown, in plastic or organic planting pots, in sandy loam, covered with soil and grown in a greenhouse under controlled growth conditions. 2 to 3 weeks after sowing, the test plants were sprayed in the single-leaf stage. The compounds according to the invention, formulated in form of wettable powders (WP) or as emulsifiable concentrates (EC), were sprayed onto the green plant parts as aqueous suspension or emulsion, with the addition of 0.5% of an additive, at an application rate of 600 l of water/ha (converted). The test plants were placed in the greenhouse for ca. 3 weeks under optimum growth conditions, and then the effect of the preparations was assessed visually in comparison with untreated controls (herbicidal effect in percent (%): 100% effect=plants have died off, 0% effect=as control plants). Tables F1 to F4 below show the effects of selected compounds of the general formula (I) according to Table 1 on various crop plants and an application rate corresponding to 320 g/ha or below obtained by the experimental procedure mentioned above.

[2] = test system: Setaria viridis (SETVI); assay: Herbicidal pre-emergence action, section C (Table C8); conditions: Setaria viridis, pre-emergence, 504 h; application rate 320 g/ha; visual grading after ca. 3 weeks; read-out: pre-emergence activity against SETVI in %
Source text: (§2) Seeds of mono- and dicotyledonous weed plants and crop plants were sown, in plastic or organic planting pots, in sandy loam and covered with soil. The compounds according to the invention, formulated in the form of wettable powders (WP) or as emulsifiable concentrates (EC), were applied to the surface of the covering soil as aqueous suspension or emulsion, with the addition of 0.5% of an additive, at an application rate of 600 l of water/ha (converted). Following treatment, the pots were placed in a greenhouse and kept under optimum growth conditions for the test plants. The visual grading of the damage to the test plants was carried out after ca. 3 weeks in comparison to untreated controls (herbicidal effect in percent (%): 100% effect=plants have died off, 0% effect=as control plants).

[3] = test system: Zea mays (ZEAMX); assay: Pre-emergence effects on crop plants, section D (Table D1); conditions: application rate 320 g/ha; visual grading after ca. 3 weeks
Source text: (§3) Seeds of mono- and dicotyledonous weed plants and crop plants were sown, in plastic or organic planting pots, in sandy loam and covered with soil. The compounds according to the invention, formulated in the form of wettable powders (WP) or as emulsifiable concentrates (EC), were applied to the surface of the covering soil as aqueous suspension or emulsion, with the addition of 0.5% of an additive, at an application rate of 600 l of water/ha (converted).
(§4) Following treatment, the pots were placed in a greenhouse and kept under optimum growth conditions for the test plants. The visual grading of the damage to the test plants was carried out after ca. 3 weeks in comparison to untreated controls (herbicidal effect in percent (%): 100% effect=plants have died off, 0% effect=as control plants).
(§5) Tables D1 to D5 below show the effects of various compounds of the general formula (I) according to Table 1 on various crop plants and an application rate corresponding to 320 g/ha or below obtained by the experimental procedure mentioned above in Biological Examples, Section C.

[4] = test system: Triticum aestivum (TRZAS); assay: Pre-emergence effects on crop plants, section D (Table D2); conditions: application rate 320 g/ha; visual grading after ca. 3 weeks
Source text: as §3, §4, §5

[5] = test system: Zea mays (ZEAMX); assay: Post-emergence effects on crop plants, section F (Table F1); conditions: Zea mays, 504 h, application rate 80 g/ha, read-out: post-emergence activity against ZEAMX in %
Source text: as §1

[6] = test system: Echinochloa crus-galli (ECHCG); assay: Herbicidal pre-emergence action, section C (Table C3); conditions: Echinochloa crus-galli, pre-emergence, 504 h; application rate 320 g/ha; visual grading after ca. 3 weeks vs untreated controls; read-out: pre-emergence activity against ECHCG in %
Source text: as §2

[7] = test system: Digitaria sanguinalis (DIGSA); assay: Herbicidal pre-emergence action, section C (Table C12); conditions: Digitaria sanguinalis, pre-emergence, 504 h; application rate 320 g/ha; visual grading after ca. 3 weeks; read-out: pre-emergence activity against DIGSA in %
Source text: as §2

[8] = test system: Triticum aestivum (TRZAS); assay: Post-emergence effects on crop plants, section F (Table F2); conditions: Triticum aestivum, 504 h, application rate 320 g/ha, read-out: post-emergence activity against TRZAS in %
Source text: as §1

[9] = test system: Veronica persica (VERPE); assay: Herbicidal post-emergence action, section B (Table B10); conditions: application rate 320 g/ha; visual rating about 3 weeks after treatment vs untreated controls
Method: (§6) Seeds of mono- and dicotyledonous weed plants were placed in plastic pots in sandy loam soil (doubly sown with in each case one species of mono- or dicotyledonous weed plants per pot), covered with soil and cultivated in a greenhouse under controlled growth conditions. 2 to 3 weeks after sowing, the test plants were treated at the one-leaf stage. The compounds of the invention, formulated in the form of wettable powders (WP) or as emulsion concentrates (EC), were applied onto the green parts of the plants as aqueous suspension or emulsion with addition of 0.5% additive at a water application rate of 600 liters per hectare (converted). After the test plants had been kept in the greenhouse under optimum growth conditions for about 3 weeks, the activity of the preparations was rated visually in comparison to untreated controls. For example, 100% activity=the plants have died, 0% activity=like control plants.

[10] = test system: Amaranthus retroflexus (AMARE); assay: Herbicidal post-emergence action, section B (Table B11); conditions: application rate 1280 g/ha; visual rating about 3 weeks after treatment vs untreated controls
Method: as §6

[11] = test system: Abutilon theophrasti (ABUTH); assay: Herbicidal post-emergence action, section B (Table B1); conditions: application rate 1280 g/ha, rated visually after about 3 weeks
Method: as §6

[12] = test system: Poa annua (POAAN); assay: Herbicidal pre-emergence action, section A (Table A7); conditions: application rate 1280 g/ha; visual grading after ca. 3 weeks vs untreated controls
Source text: as §2, with “plants” for “plants and crop plants”, “sown” for “sown,”, “pots (double sowings with one species of mono- and one species of dicotyledonous weed plants per pot),” for “or organic planting pots,”, “loam,” for “loam”, “water per hectare” for “water/ha”

[13] = test system: Stellaria media (STEME); assay: Herbicidal post-emergence action, section B (Table B9); conditions: application rate 1280 g/ha; visual rating about 3 weeks after treatment vs untreated controls
Method: as §6

[14] = test system: Poa annua (POAAN); assay: Herbicidal post-emergence action, section B (Table B7); conditions: application rate 1280 g/ha; visual rating about 3 weeks after treatment vs untreated controls
Method: as §6

[15] = test system: Setaria viridis (SETVI); assay: Herbicidal pre-emergence action, section A (Table A8); conditions: application rate 1280 g/ha
Source text: as §2, with “plants” for “plants and crop plants”, “sown” for “sown,”, “pots (double sowings with one species of mono- and one species of dicotyledonous weed plants per pot),” for “or organic planting pots,”, “loam,” for “loam”, “water per hectare” for “water/ha”

[16] = test system: Echinochloa crus-galli (ECHCG); assay: Herbicidal post-emergence action, section B (Table B3); conditions: application rate 1280 g/ha, rated visually after about 3 weeks
Method: as §6

[17] = test system: Kochia scoparia (KCHSC); assay: Herbicidal pre-emergence action, section A (Table A4); conditions: application rate 1280 g/ha; visual grading after ca. 3 weeks vs untreated controls
Source text: as §2, with “plants” for “plants and crop plants”, “sown” for “sown,”, “pots (double sowings with one species of mono- and one species of dicotyledonous weed plants per pot),” for “or organic planting pots,”, “loam,” for “loam”, “water per hectare” for “water/ha”

[18] = test system: Amaranthus retroflexus (AMARE); assay: Herbicidal pre-emergence action, section A (Table A11); conditions: application rate 1280 g/ha
Source text: as §2, with “plants” for “plants and crop plants”, “sown” for “sown,”, “pots (double sowings with one species of mono- and one species of dicotyledonous weed plants per pot),” for “or organic planting pots,”, “loam,” for “loam”, “water per hectare” for “water/ha”

[19] = test system: Digitaria sanguinalis (DIGSA); assay: Herbicidal pre-emergence action, section A (Table A12); conditions: application rate 1280 g/ha
Source text: as §2, with “plants” for “plants and crop plants”, “sown” for “sown,”, “pots (double sowings with one species of mono- and one species of dicotyledonous weed plants per pot),” for “or organic planting pots,”, “loam,” for “loam”, “water per hectare” for “water/ha”

[20] = test system: Stellaria media (STEME); assay: Herbicidal pre-emergence action, section A (Table A9); conditions: application rate 1280 g/ha
Source text: as §2, with “plants” for “plants and crop plants”, “sown” for “sown,”, “pots (double sowings with one species of mono- and one species of dicotyledonous weed plants per pot),” for “or organic planting pots,”, “loam,” for “loam”, “water per hectare” for “water/ha”

[21] = test system: Digitaria sanguinalis (DIGSA); assay: Herbicidal post-emergence action, section B (Table B12); conditions: application rate 1280 g/ha; visual rating about 3 weeks after treatment vs untreated controls
Method: as §6

COC(=O)CCC(=O)N1CSc2cc(Br)c(-c3sccc3Cl)nc21 [Example I-077, methyl 4-[6-bromo-5-(3-chloro-2-thienyl)-2H-thiazolo[4,5-b]pyridin-3-yl]-4-oxo-butanoate]
percent crop plant damage at 320 g/ha [1]: 10% | pest or weed control at 320 g/ha [2]: 90% | pre-emergence activity against ZEAMX in % (crop plant damage) [3]: 10% | pre-emergence activity against TRZAS in % (crop plant damage) [4]: 0% | percent crop plant damage (phytotoxicity) on Zea mays, post-emergence at 80 g/ha [5]: 0% | pest or weed control at 320 g/ha [6]: 90% | pest or weed control at 320 g/ha [7]: 90% | percent crop plant damage (wheat, post-emergence) at 320 g/ha [8]: 20%

COC(=O)CCC(=O)N1CSc2cc(Br)c(-c3ccc(F)cc3F)nc21 [Example I-085]
post-emergence activity against VERPE in % [9]: 100% | post-emergence activity against AMARE in % [10]: 90% | post-emergence activity against ABUTH in % [11]: 90% | pre-emergence activity against POAAN in % [12]: 100% | post-emergence activity against STEME in % [13]: 90% | post-emergence activity against POAAN in % [14]: 90% | pre-emergence activity against SETVI in % [15]: 100% | post-emergence activity against ECHCG in % [16]: 90%

CC(=O)N1CSc2cc(Br)c(-c3cccc(Cl)c3F)nc21 [Example I-115]
pre-emergence activity against KCHSC in % [17]: 90% | pre-emergence activity against AMARE in % [18]: 90% | pre-emergence activity against DIGSA in % [19]: 100% | post-emergence activity against POAAN in % [14]: 90% | pre-emergence activity against STEME in % [20]: 90% | post-emergence activity against DIGSA in % [21]: 90%
